Assay [1] deals with T1, Opioid receptors; delta & kappa (Homo sapiens) (UniProt P41145+P41143). Kind of assay: Ki selectivity ratio (kappa/delta) of the compound. The assay is classed as protein assay.
The target in assay [2] is T2, Opioid receptors; mu & delta (Homo sapiens) (UniProt P41143+P35372). Kind of assay: Ki selectivity ratio (mu/delta) of the compound. The assay is classed as protein assay.
The target of assay [3] is T1, Opioid receptors; delta & kappa (Homo sapiens). Kind of assay: Ke selectivity ratio (kappa/delta) of the compound. Format: protein assay.
Assay [4] deals with T2, Opioid receptors; mu & delta (Homo sapiens). Kind of assay: Ke selectivity ratio (mu/delta) of the compound. Format: protein assay.
The target of assay [5] is Kappa-type opioid receptor (Cavia porcellus, UniProt P41144). Kind of assay: Compound was evaluated for binding affinity of Opioid receptor kappa 1 in guinea pig brain membranes. The assay is classed as cell membranes, Membrane.
Assay [6] deals with Delta-type opioid receptor (Mus musculus) (UniProt P32300). Kind of assay: Compound was evaluated for antagonist potency in the mouse vas deferens preparation using [D-Ala2,D-Leu5]enkephalin (Opioid receptor delta 1). The assay is classed as functional.

The record followed here is ChEMBL document CHEMBL1125706, “An approach to the design of receptor-type-selective non-peptide antagonists of peptidergic receptors: delta opioid antagonists” (J Med Chem, 1991).

pKi: −log10 of the molar value. Non-standard residues stand in square brackets, D forms with d. Residues, ends and D or L forms follow the SMILES beside them. *: point of attachment. Tyr(Nα,Nα-allyl2) = C=CCN(CC=C)[C@@H](Cc1ccc(O)cc1)C(=O)*; Aib = CC(C)(N)C(=O)O Some results are limits rather than exact numbers.

T2 sequence (P35372 whole entry, looked up): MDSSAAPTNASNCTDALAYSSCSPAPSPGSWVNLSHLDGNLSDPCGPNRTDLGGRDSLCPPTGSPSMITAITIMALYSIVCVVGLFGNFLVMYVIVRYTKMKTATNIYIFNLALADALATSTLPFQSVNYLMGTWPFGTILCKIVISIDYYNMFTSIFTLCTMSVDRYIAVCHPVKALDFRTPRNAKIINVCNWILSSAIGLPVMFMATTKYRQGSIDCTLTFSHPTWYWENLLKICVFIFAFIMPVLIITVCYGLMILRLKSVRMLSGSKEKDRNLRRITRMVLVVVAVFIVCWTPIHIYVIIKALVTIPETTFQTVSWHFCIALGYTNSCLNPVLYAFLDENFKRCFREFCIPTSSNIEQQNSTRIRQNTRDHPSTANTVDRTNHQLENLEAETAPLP
T2 sequence (P41143 whole entry, looked up): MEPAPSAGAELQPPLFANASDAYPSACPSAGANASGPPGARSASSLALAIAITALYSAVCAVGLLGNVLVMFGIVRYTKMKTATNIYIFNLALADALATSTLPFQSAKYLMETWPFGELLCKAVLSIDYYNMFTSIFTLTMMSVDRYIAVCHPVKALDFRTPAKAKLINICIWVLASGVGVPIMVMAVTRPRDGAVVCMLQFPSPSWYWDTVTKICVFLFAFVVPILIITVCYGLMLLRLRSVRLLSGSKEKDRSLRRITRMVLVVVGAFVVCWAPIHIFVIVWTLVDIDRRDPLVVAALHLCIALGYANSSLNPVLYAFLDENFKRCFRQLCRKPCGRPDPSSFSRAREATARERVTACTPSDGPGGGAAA
T1 sequence (P41143 whole entry, looked up): as above
T1 sequence (P41145 whole entry, looked up): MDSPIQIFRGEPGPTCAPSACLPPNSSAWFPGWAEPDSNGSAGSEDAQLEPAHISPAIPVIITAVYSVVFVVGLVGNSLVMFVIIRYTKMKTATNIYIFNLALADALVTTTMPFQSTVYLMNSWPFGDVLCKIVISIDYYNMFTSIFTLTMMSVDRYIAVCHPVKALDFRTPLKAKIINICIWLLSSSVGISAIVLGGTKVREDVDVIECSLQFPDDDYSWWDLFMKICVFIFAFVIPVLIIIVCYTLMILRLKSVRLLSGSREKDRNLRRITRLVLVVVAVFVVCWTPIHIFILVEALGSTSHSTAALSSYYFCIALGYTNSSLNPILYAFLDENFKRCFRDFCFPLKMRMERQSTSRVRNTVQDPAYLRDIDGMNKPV
Delta-type opioid receptor (Mus musculus), sequence (P32300 whole entry): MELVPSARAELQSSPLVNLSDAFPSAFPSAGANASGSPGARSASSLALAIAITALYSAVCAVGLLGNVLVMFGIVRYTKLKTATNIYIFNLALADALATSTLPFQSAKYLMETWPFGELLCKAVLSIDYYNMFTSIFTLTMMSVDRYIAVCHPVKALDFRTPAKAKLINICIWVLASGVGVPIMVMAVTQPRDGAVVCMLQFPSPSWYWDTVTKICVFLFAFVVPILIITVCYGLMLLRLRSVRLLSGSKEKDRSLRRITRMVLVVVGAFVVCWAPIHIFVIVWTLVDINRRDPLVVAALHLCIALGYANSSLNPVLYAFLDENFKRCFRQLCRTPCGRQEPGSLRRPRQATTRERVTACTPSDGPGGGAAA
Kappa-type opioid receptor, sequence (P41144 whole entry): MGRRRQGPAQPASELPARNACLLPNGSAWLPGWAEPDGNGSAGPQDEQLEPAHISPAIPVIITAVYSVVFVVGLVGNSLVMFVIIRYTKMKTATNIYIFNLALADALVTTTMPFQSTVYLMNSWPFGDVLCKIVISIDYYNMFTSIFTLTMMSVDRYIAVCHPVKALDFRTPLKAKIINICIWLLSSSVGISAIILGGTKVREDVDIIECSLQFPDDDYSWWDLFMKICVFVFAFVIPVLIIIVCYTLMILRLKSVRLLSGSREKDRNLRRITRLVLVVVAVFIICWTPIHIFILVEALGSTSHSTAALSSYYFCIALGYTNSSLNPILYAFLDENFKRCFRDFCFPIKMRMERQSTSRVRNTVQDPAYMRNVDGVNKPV

Turning to `C=CCN(CC=C)[C@@H](Cc1ccc(O)cc1)C(=O)NC(C)(C)C(=O)NC(C)(C)C(=O)N[C@@H](Cc1ccccc1)C(=O)N[C@@H](CC(C)C)C(=O)O` ({Tyr(Nα,Nα-allyl2)}-[Aib][Aib]FL-OH), the Selectivity ratio in assay [1] is above 29; in assay [2], above 29; in assay [3] it was above 18; in assay [4], above 24.
In the case of `Oc1ccc2c3c1O[C@H]1c4oc5ccccc5c4C[C@@]4(O)[C@@H](C2)N(CC2CC2)CC[C@]314` [NALTRIBEN], the pKi in assay [5] is 6.82. The Ke in assay [6] is 0.27 nM.

Usually pKi stands for the negative decadic logarithm of the Ki, by convention in mol/L.
